Laboratory results reported in US7595074B2, “Polymeric antioxidants” (University of Massachusetts Lowell, priority 2002, dated 2009).
Where two headings read alike, the source gives them in different places.

Legend:
[1] = bleaching of a beta-carotene/linoleate model system (antioxidant activity); type: biochemical; set-up: % Antioxidant Activity of Monomer / % Antioxidant Activity: concentration or dose not given beside the values; details: for % Antioxidant Activity: compounds of each step of the Example 8 scheme, procedure of Food Chemistry 73:285-290 (2001)
Method: The antioxidant activity of monomers and enzymatically-prepared polymeric antioxidants was compared by measuring the bleaching of a beta-carotene system. In the model system, beta-carotene undergoes rapid discoloration in the absence of an antioxidant. The assay and measurements were conducted according to the procedure described in Jayaprakasha, G. K., et al. Food Chemistry 73: 285-290 (2001) and Hidalgo, M. E., et al. Phytochemistry 37: 1585-1587 (1994), the contents of which are incorporated herein by reference. Briefly, beta-carotene (0.2 mg), linoleic acid (20 mg), and 200 mg of Tween-40 (polyoxyethylene sorbitan monopalmitate) were dissolved in 0.5 mL of chloroform. The chloroform was removed under vacuum and the resulting mixture was immediately diluted with 10 mL of distilled water and mixed well for 1-2 minutes. The resulting emulsion was further made up to 50 mL with oxygenated water. Aliquots (4 mL) of the emulsion were mixed with 0.2 mL of test sample (monomer or polymer) in dimethylformamide (DMF), so that there were 100 ppm of monomer or polymer present in the aliquot. A control was prepared by mixing 0.2 mL of DMF with 4 mL of the above emulsion. The samples were incubated at 50° C. The absorbance of all samples at 470 nm was taken initially (t=0) and continued up to 180 minutes at 15 minute intervals. Antioxidant activity is calculated based on the formula: Antioxidant Activity=100(1−(Ao−At)/(A^1o−A^1t)), • Ao=absorbance of the test sample at zero time, • A^1o=absorbance of the control at zero time, • At=absorbance of the test sample at time t (180 min), and • A^1t=absorbance of the control at time t (180 min).
The antioxidant activity of several other antioxidant monomer/polymer pairs were determined by the procedure described in Example 3.
The antioxidant activity of compounds formed in each step of the scheme shown above were measured according to the procedure published in Food Chemistry 73:285-290 (2001).

[2] = oil stability index of cooking oil heated to frying temperature
Method: (§1) The oils were heated to frying temperature (190° C.) and their oil stability index was measured. The oil stability index (American Oil Chemists' Society Cd 126-92) measures the amount of time before the oil begins to rapidly oxidize. A greater length of time indicates an oil with a greater antioxidant capacity, which likely corresponds to a longer potential shelf life.

[3] = as above; remark: listed apart in the source
Method: as §1

[4] = tested on: Sprague-Dawley albino rats; details: rat, in vivo
Method: A study was conducted based upon the standards of OECD Guidelines for Testing of Chemicals, OECD 423. Ten Sprague-Dawley albino rats were administered with 2000 mg/kg body weight poly(TBHQ) as a single dose via gastric gavage. After administration, the animals were returned to their cages and observed for signs of toxicity for up to 14 days. Body weights were determined prior to dosing and on the day of death or prior to terminal sacrifice. A second study was performed using three female rats with 500 mg/kg body weight of poly(TBHQ).

[5] = quoted for comparison; cited from earlier work
[6] = thermogravimetric analysis (TGA); type: physicochemical; details: thermal stability, FIG. 4
[7] = monomer, 100 ppm, 50° C., 180 min, Antioxidant Activity=100(1−(Ao−At)/(A1o−A1t))
[8] = monomer, procedure of Example 3

## Oc1ccc(N=Nc2ccccc2)cc1 [4-azophenylphenol]
[1]; [7]
  Monomer Activity: 5.4
[1]; [8]
  % Antioxidant Activity of Monomer: 5.4%

## CC(=O)Oc1ccc(O)cc1C(C)(C)C [c, 4-acetyloxy-3-tert-butylphenol]
[1]
  % Antioxidant Activity: 7.9%

## Poly(tert-butyl-hydroquinone) [Poly(TBHQ)]
[2]
  oil stability index (time before the oil begins to rapidly oxidize): 19.2 h
[3]
  oil stability index (time before the oil begins to rapidly oxidize): 9.0 h
[4]
  female rats that died prior to completion of the study: Three of the five
  gross necropsy of surviving animals: None of the surviving animals showed abnormal signs
  necropsy finding in animals that did not survive 14 days: the intestines were inflamed
  overall toxicity: relatively low toxicity to rats
  survival: survived the duration of the study
[4]; po
  oral LD50: 500 to 2000 mg/kg

## CC(C)(C)c1cc(O)ccc1O [TBHQ, tert-butyl-hydroquinone]
[1]
  % Antioxidant Activity: 6.72%
[2]; Canola oil, 190° C., equal concentration of phenol moieties
  oil stability index (time before the oil begins to rapidly oxidize): 10.8 h
[3]; Corn oil, 190° C., equal concentration of phenol moieties
  oil stability index (time before the oil begins to rapidly oxidize): 6.6 h

## Oc1ccccc1 [phenol]
[1]
  % Antioxidant Activity of Monomer: 2.1%
  Monomer Activity: 2.1

## [Cl-].[Na+] [sodium chloride]
[5]
  oral LD50: about 3000 mg/kg

## OCc1cccc(O)c1 [3-hydroxybenzyl alcohol]
[1]; [7]
  Monomer Activity: 1.0
[1]; [8]
  % Antioxidant Activity of Monomer: 1.0%

## COc1ccc(O)cc1C(C)(C)C [2-tert-butyl-4-hydroxyanisole]
[1]; [7]
  Monomer Activity: 44.24
[6]
  temperature up to which there was about 15% mass loss (TGA): about 125 °C

## CC(=O)Oc1ccc(OC(C)=O)c(C(C)(C)C)c1 [b]
[1]
  % Antioxidant Activity: 2.45%
